Experimental findings from ChEMBL document CHEMBL1125808, “Studies on the macrocyclic part of the trichothecene satratoxin: partial synthesis and structure-activity relationship” (Bioorg Med Chem Lett, 1991) are described below.

Assay [1] is filed under the species Mus musculus. Nature of the assay: Cytotoxicity was evaluated on mice spleen lymphocytes stimulated by Phaseolus Vulgaris Phytohemagglutininin (PHA) after 48 hours. The format is functional. Set-up: unit not given here.
The species named for assay [2] is Mus musculus. Nature of the assay: Cytotoxicity was evaluated on mice spleen lymphocytes stimulated by Phaseolus Vulgaris Phytohemagglutininin (PHA) after 72 hours. The format is functional. Details: unit not given here.
The next assay has as its system Daudi. Nature of the assay: Concentration of compound to inhibit half of cell growth in malignant human lymphocytes: Daudi lymphoma cells. It counts as functional, cell-based. Details: unit not given here.
The species entered for assay [3] is Mus musculus. The assay can be described thus: Cytotoxicity of compound was evaluated on mice spleen lymphocytes stimulated by Phaseolus Vulgaris Phytohemagglutininin (PHA) after 48 hours. It counts as functional.

In the case of `CCOC(=O)/C=C/[C@H]1OCC/C(=C\COCc2ccccc2)[C@@H]1O[Si](C)(C)C(C)(C)C`, the IC50 in the assay listed under Mus musculus [1] came out at 0.7; in the assay listed under Mus musculus [2] it was 1.4; in the assay on Daudi, 0.6.

Take `COC(=O)CC(O)[C@H]1OCC/C(=C\COCc2ccccc2)C1O[Si](C)(C)C(C)(C)C` (stereo not given in full): the IC50 in the assay listed under Mus musculus [1] turned out to be 20; in the assay listed under Mus musculus [2], 20; in the assay with Daudi, 10.

In the case of `CCOC(=O)/C=C/[C@H]1OCC/C(=C\C(=O)OCC)[C@@H]1O[Si](C)(C)C(C)(C)C`, the IC50 worked out at 17.6 in the assay listed under Mus musculus [2], 9.3 with Daudi and 8.8 M ml-1 in the assay listed under Mus musculus [3].

Regarding `O=C1CC(O)[C@H]2OCC/C(=C\COCc3ccccc3)C2O1` (stereo not given in full), the values for the IC50 in the assay filed under Mus musculus [1], in the assay filed under Mus musculus [2] and in the assay on Daudi were 8.8, 13 and 3.5, respectively.

Regarding `CCOC(=O)/C=C/C=C/[C@H]1OCC/C(=C\C(=O)OCC)[C@@H]1O[Si](C)(C)C(C)(C)C`, the figures for the IC50 in the assay listed under Mus musculus [1], in the assay listed under Mus musculus [2] and with Daudi were 0.73, 1.1 and 2.2, respectively.
